Values of other authors, collected in US6972133B1, “Degradable animal chewing article possessing enhanced safety, durability and mouth-feel” (Seefar Technologies, Inc., priority 1999, dated 2005).

How the values were obtained:
[1] = test system: fungi (including yeast) and algae; conditions: most active against fungi (including yeast) and algae
[2] = test system: dogs

Row | SMILES | anti-microbial activity [1] | solubility in dilute alkali solution (dilute alkali solution) | solubility in ethanol (ethanol) | solubility in water (water, unmodified triclosan) | LD50 oral toxicity [2]
1 | Cc1ccc(S(=O)(=O)C(I)I)cc1 [DIMTS, diiodomethyl-p-tolylsulphone] | broad spectrum of anti-microbial activity | – | – | – | –
2 | Oc1cc(Cl)ccc1Oc1ccc(Cl)cc1Cl [triclosan, 2,4,4″-trichloro-2-hydroxydiphenylether] | – | sparingly soluble | soluble | insoluble | > 5000 mg/kg
